Tested on: colorectal cancer cell lines (HT29 & HCT116)
Test: Microarray gene expression, cells grown with Symadex at the GI50 concentration
Assay type: cell-based, human
Text: Two colorectal cancer cell lines (HT29 & HCT116) were chosen for study, whose behavior as rapidly proliferating invasive cells could be generalized to many other such cell types from different tissue origins. The two lines were immortalized colon carcinomas. Their gene expression patterns are known to mimic the behavior of neuro-enteric cells and therefore provide an appropriate simulation of the kinds of regulatory patterns that would be found in cells of similar epithelial or endothelial origin. Cells with these ontological roots are also suitable models for the kinds of autoimmune and inflammatory susceptibilities that are common in tissues of neuroenteric origin, such as those in which inflammatory bowel disease would present itself.
Frozen cell pellets were lysed in triplicate and total RNA isolated by purification over spin columns (all reagents from Ambion). After QC acceptance for purity, total RNA was converted to cRNA by linear amplification and 10 μg samples were applied to CodeLink Human Whole Genome Bioarrays (GE Healthcare and GenUs Biosystems).
Arrays were processed in triplicate and comparisons made after robust statistical analysis of replicate variability. […] False discovery rates and representation in standardized gene ontologies/pathways were then determined by filtering the “fold” changes in expression with open access software packages, EASE and GoMiner, and with Pathways Analysis (Ingenuity Systems). Functional annotations were then explored further in the MedMiner literature search environment.
A listing of these is shown in Table 3, in which the first column data presents the fold change against control, the second column cites the gene symbol, the third column cites the Genbank Accession, and the fourth column provides an abridged description of the gene's function.

CCN(CC)CCNc1ccc2ncn3c4ccc(O)cc4c(=O)c1c23 [Symadex™, 5-[[(diethylamino)ethyl]amino]-8-hydroxyimidazo[4,5,1-de]-acridine-6-one]
Mean fold change over control: GGH (NM_003878): −1.96
Mean fold change over control: MPZL1 (NM_003953): −2.04
Mean fold change over control: C3AR1 (NM_004054): −15.52
Mean fold change over control: EIF2S1 (NM_004094): −2.13
Mean fold change over control: FEN1 (NM_004111): −2.87
Mean fold change over control: SLC1A2 (NM_004171): −11.21
Mean fold change over control: SLC9A3 (NM_004174): −15.57
Mean fold change over control: SNRPD3 (NM_004175): −2.31
Mean fold change over control: CDKL1 (NM_004196): −8.14
Mean fold change over control: PTTG1 (NM_004219): −2.43
Mean fold change over control: SLC22A13 (NM_004256): −11.51
Mean fold change over control: BAG2 (NM_004282): −2.22
Mean fold change over control: BAD (NM_004322): −2.08
Mean fold change over control: ERH (NM_004450): −3.39
Mean fold change over control: KCNQ2 (NM_004518): −24.13
Mean fold change over control: MYBPC2 (NM_004533): −21.22
Mean fold change over control: SPOCK (NM_004598): −6.57
Mean fold change over control: NMI (NM_004688): −2.41
Mean fold change over control: CCNB2 (NM_004701): −2.51
Mean fold change over control: PDCD5 (NM_004708): −2.21
Mean fold change over control: ZW10 (NM_004724): −2.31
Mean fold change over control: DDX1 (NM_004939): −2.09
Mean fold change over control: IBSP (NM_004967): −58.56
Mean fold change over control: CCL23 (NM_005064): −12.99
Mean fold change over control: COX6A2 (NM_005205): −23.19
Mean fold change over control: GJB5 (NM_005268): −62.09
Mean fold change over control: GPR15 (NM_005290): −80.43
Mean fold change over control: GPR24 (NM_005297): −13.80
Mean fold change over control: SULT1E1 (NM_005420): −10.91
Mean fold change over control: RQCD1 (NM_005444): −2.38
Mean fold change over control: ZNF265 (NM_005455): −2.03
Mean fold change over control: STMN1 (NM_005563): −2.41
Mean fold change over control: LCP2 (NM_005565): −11.85
Mean fold change over control: VDAC3 (NM_005662): −2.22
Mean fold change over control: D8S2298E (NM_005671): −1.88
Mean fold change over control: SCAMP3 (NM_005698): −2.00
Mean fold change over control: THOC4 (NM_005782): −3.41
Mean fold change over control: KLRG1 (NM_005810): −24.24
Mean fold change over control: DSCR1L1 (NM_005822): −9.75
Mean fold change over control: MSLN (NM_005823): −17.46
Mean fold change over control: SLC35B1 (NM_005827): −2.23
Mean fold change over control: CD5L (NM_005894): −13.25
Mean fold change over control: MCM6 (NM_005915): −1.97
Mean fold change over control: MCM7 (NM_005916): −2.69
Mean fold change over control: CD164 (NM_006016): −2.14
Mean fold change over control: DLEU2 (NM_006021): −3.39
Mean fold change over control: C10ORF7 (NM_006023): −2.11
Mean fold change over control: NFATC1 (NM_006162): −16.69
Mean fold change over control: TIMM23 (NM_006327): −2.02
Mean fold change over control: PPIH (NM_006347): −2.49
Mean fold change over control: SYNCRIP (NM_006372): −2.23
Mean fold change over control: SSSCA1 (NM_006396): −2.20
Mean fold change over control: RNASEH2A (NM_006397): −2.31
Mean fold change over control: SIVA (NM_006427): −2.78
Mean fold change over control: USP16 (NM_006447): −66.26
Mean fold change over control: PAICS (NM_006452): −2.03
Mean fold change over control: RPC62 (NM_006468): −2.22
Mean fold change over control: PIR51 (NM_006479): −3.73
Mean fold change over control: FARS1 (NM_006567): −2.11
Mean fold change over control: RBBP9 (NM_006606): −8.81
Mean fold change over control: NMU (NM_006681): −2.12
Mean fold change over control: U2AF1 (NM_006758): −1.99
Mean fold change over control: PRSS21 (NM_006799): −22.21
Mean fold change over control: KIF2C (NM_006845): −2.52
Mean fold change over control: CENTA1 (NM_006869): −19.89
Mean fold change over control: TRH (NM_007117): −8.14
Mean fold change over control: ZNF258 (NM_007167): −2.66
Mean fold change over control: DUSP12 (NM_007240): −2.18
Mean fold change over control: HSGT1 (NM_007265): −2.08
Mean fold change over control: DTYMK (NM_012145): −3.07
Mean fold change over control: TPSD1 (NM_012217): −13.71
Mean fold change over control: TFEC (NM_012252): −20.30
Mean fold change over control: RAD54B (NM_012415): −2.04
Mean fold change over control: SPO11 (NM_012444): −14.75
Mean fold change over control: TIMM10 (NM_012456): −2.23
Mean fold change over control: UMPK (NM_012474): −1.92
Mean fold change over control: HMMR (NM_012484): −2.94
Mean fold change over control: DNAJD1 (NM_013238): −2.24
Mean fold change over control: TAC3 (NM_013251): −12.26
Mean fold change over control: RACGAP1 (NM_013277): −2.31
Mean fold change over control: ALG5 (NM_013338): −2.71
Mean fold change over control: ANAPC4 (NM_013367): −1.92
Mean fold change over control: NRG1 (NM_013956): −17.54
Mean fold change over control: SLC27A6 (NM_014031): −18.72
Mean fold change over control: MRPL13 (NM_014078): −2.16
Mean fold change over control: TMEM4 (NM_014255): −2.21
Mean fold change over control: PLK4 (NM_014264): −2.39
Mean fold change over control: ITGB3BP (NM_014288): −2.73
Mean fold change over control: SULT4A1 (NM_014351): −293.18
Mean fold change over control: ZNRD1 (NM_014596): −2.17
Mean fold change over control: MEA (NM_014623): −2.39
Mean fold change over control: DCLRE1A (NM_014881): −3.14
Mean fold change over control: KIAA0089 (NM_015141): −7.23
Mean fold change over control: RCOR1 (NM_015156): −7.09
Mean fold change over control: ARL6IP (NM_015161): −2.29
Mean fold change over control: EGFL6 (NM_015507): −28.71
Mean fold change over control: GMNN (NM_015895): −2.81
Mean fold change over control: MRPL11 (NM_016050): −2.97
Mean fold change over control: MYO15A (NM_016239): −50.59
Mean fold change over control: DNAJB11 (NM_016306): −2.15
Mean fold change over control: POLR3K (NM_016310): −2.24
Mean fold change over control: NR2E3 (NM_016346): −14.89
Mean fold change over control: WWOX (NM_016373): −2.07
Mean fold change over control: RNF141 (NM_016422): −2.29
Mean fold change over control: POLA (NM_016937): −1.88
Mean fold change over control: PDE11A (NM_016953): −16.85
Mean fold change over control: MRPL39 (NM_017446): −2.20
Mean fold change over control: LIMS2 (NM_017980): −57.61
Mean fold change over control: FAIM (NM_018147): −3.32
Mean fold change over control: LPAAT-E (NM_018361, first entry): −11.94
Mean fold change over control: LPAAT-E (NM_018361, second entry): −2.40
Mean fold change over control: SIAT7A (NM_018414): −11.76
Mean fold change over control: LRP1B (NM_018557): −15.01
Mean fold change over control: TCP11 (NM_018679): −9.82
Mean fold change over control: BCAP29 (NM_018844): −2.17
Mean fold change over control: GDAP1 (NM_018972): −2.44
Mean fold change over control: ROBO4 (NM_019055): −11.95
Mean fold change over control: POLE4 (NM_019896): −2.04
Mean fold change over control: SARA1 (NM_020150): −2.14
Mean fold change over control: RAD18 (NM_020165): −2.28
Mean fold change over control: MRPL1 (NM_020236): −2.02
Mean fold change over control: NUP107 (NM_020401): −2.68
Mean fold change over control: KCNJ12 (NM_021012): −15.93
Mean fold change over control: MRPL23 (NM_021134): −2.29
Mean fold change over control: ATP2B3 (NM_021949): −9.43
Mean fold change over control: NUCKS (NM_022731): −2.02
Mean fold change over control: MIS12 (NM_024039): −2.20
Mean fold change over control: SUV39H2 (NM_024670): −2.33
Mean fold change over control: TXNDC (NM_030755): −2.13
Mean fold change over control: PHAX (NM_032177): −2.17
Mean fold change over control: PCDH7 (NM_032457): −19.65
Mean fold change over control: GPR54 (NM_032551): −2.56
Mean fold change over control: PHF5A (NM_032758): −2.95
Mean fold change over control: SYNE1 (NM_033071): −1481.77
Mean fold change over control: SLC7A13 (NM_138817): −27.75
Mean fold change over control: BBS2 (T26496): −23.65
number of down-regulated genes significantly represented in both cell types (array of 55,000 gene fragment accessions): 271

From US20060189546A1, “Compounds for treating autoimmune and demyelinating diseases” (priority 2005, published 2006)
